Structures are written as SMILES.

Among the data in paper PMC6315298 (2018) are Kd values, retold here.

The test system of this assay is Mango-II (RNA, aptamer) GCGUACGAAGGAGAGGAGAGGAAGAGGAGAGUACGC
The experiment in a line: fluorescence binding.

The Kd is a measure of binding affinity in units of concentration. A lower Kd goes with higher affinity. With `CN1C=CC(=Cc2sc3ccccc3[n+]2CC(=O)NCCOCCOCCOCCNC(=O)CCCC[C@@H]2SC[C@@H]3NC(=O)N[C@@H]32)c2ccccc21`, the Kd is 1.1 nM. That is a single-digit nanomolar value.

Take `CN1C=CC(=C/C=C/c2sc3ccccc3[n+]2CC(=O)NCCOCCOCCOCCNC(=O)CCCC[C@@H]2SC[C@@H]3NC(=O)N[C@@H]32)c2ccccc21`: the Kd was ~ 1.4 nM.
